From PMC8112869, “Therapeutic inhibition of keratinocyte TRPV3 sensory channel by local anesthetic dyclonine” (eLife, 2021)

Legend:
Format in all cases: cell-based
TRPV3 (G573C) = target: T1, TRPV3 (G573C) (Mus musculus, UniProt Q8K424, G573C); assay: Whole-cell currents of TRPV3 (G573C) expressed in T-Rex 293 cells
T1 construct: expressed in transfected cells; host or cells: T-Rex 293
Excerpt: (§1) The WT mouse TRPV3 (mTRPV3), human TRPV3 (hTRPV3), rat TRPV1, rat TRPV2, rat TRPM8, and mouse TRPA1 cDNAs were generously provided by Dr. Feng Qin (State University of New York at Buffalo, Buffalo, USA). The GFP-mTRPV3 WT and the mutants (mTRPV3-G573S and mTRPV3-G573C) in pcDNA4/TO vector were gifts from Dr. Michael X Zhu (The University of Texas Health Science Center at Houston, Houston, USA). The WT fTRPV3 was kindly provided by Dr. Makoto Tominaga (Department of Physiological Sciences, SOKENDAI, Okazaki, Japan). All mutations were made using the overlap-extension polymerase chain reaction method as previously described ([Tian et al., 2019]). The resulting mutations were then verified by DNA sequencing. […]
(§2) Conventional whole-cell and excised patch-clamp recording methods were used. […] For a subset of recordings, currents were amplified using an Axopatch 200B amplifier (Molecular Devices, Sunnyvale, CA) and recorded through a BNC-2090/MIO acquisition system (National Instruments, Austin, TX) using QStudio developed by Dr. Feng Qin at State University of New York at Buffalo. […] As determined by the conductance tests, the solution around a patch under study was fully controlled by the application of a flow rate of 100 μl/min or greater. […]

TRPV3 L655A = target: T2, TRPV3 L655A (Mus musculus, UniProt Q8K424, L655A); assay: Whole-cell recording of TRPV3 mutant L655A in HEK 293T cells; details: 2-APB (1 mM)-evoked, –60 mV, read-out: IC50 for inhibition of TRPV3 mutant
T2 construct: expressed in transfected cells; host or cells: HEK 293T
Excerpt: as §1, §2

TRPV3 N643A = target: T3, TRPV3 N643A (Mus musculus, UniProt Q8K424, N643A); assay: Whole-cell recording of TRPV3 mutant N643A in HEK 293T cells; details: 2-APB (1 mM)-evoked, –60 mV, read-out: IC50 for inhibition of TRPV3 mutant
T3 construct: expressed in transfected cells; host or cells: HEK 293T
Excerpt: as §1, §2

TRPV3 L642A = target: T4, TRPV3 L642A (Mus musculus, UniProt Q8K424, L642A); assay: Whole-cell recording of TRPV3 mutant L642A in HEK 293T cells; details: 2-APB (1 mM)-evoked, –60 mV, read-out: IC50 for inhibition of TRPV3 mutant
T4 construct: expressed in transfected cells; host or cells: HEK 293T
Excerpt: as §1, §2

T1 sequence (Q8K424 whole entry G573C): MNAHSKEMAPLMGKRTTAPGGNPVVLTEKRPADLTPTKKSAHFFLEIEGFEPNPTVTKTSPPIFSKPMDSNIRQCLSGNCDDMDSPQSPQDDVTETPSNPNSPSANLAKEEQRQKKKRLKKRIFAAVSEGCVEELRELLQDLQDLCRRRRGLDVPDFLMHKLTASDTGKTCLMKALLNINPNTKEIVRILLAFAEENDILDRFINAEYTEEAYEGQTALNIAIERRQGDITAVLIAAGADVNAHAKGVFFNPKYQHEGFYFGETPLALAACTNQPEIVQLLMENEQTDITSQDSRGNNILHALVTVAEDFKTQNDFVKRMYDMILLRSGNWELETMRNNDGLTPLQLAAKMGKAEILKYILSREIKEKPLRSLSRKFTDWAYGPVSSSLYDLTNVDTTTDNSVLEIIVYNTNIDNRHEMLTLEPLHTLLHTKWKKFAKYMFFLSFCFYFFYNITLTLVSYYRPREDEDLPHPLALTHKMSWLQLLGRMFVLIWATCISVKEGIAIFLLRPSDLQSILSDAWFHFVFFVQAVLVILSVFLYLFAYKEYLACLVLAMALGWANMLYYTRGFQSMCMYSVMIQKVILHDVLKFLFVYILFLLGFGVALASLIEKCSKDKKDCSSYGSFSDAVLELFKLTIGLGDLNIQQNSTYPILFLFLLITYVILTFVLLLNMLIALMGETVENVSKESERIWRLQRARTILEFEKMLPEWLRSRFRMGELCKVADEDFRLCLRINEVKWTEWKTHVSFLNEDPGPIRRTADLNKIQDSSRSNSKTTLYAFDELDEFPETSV
T4 sequence (Q8K424 whole entry L642A): as the sequence (Q8K424 whole entry G573C) above, with C573G, L642A counted along it
T3 sequence (Q8K424 whole entry N643A): as the sequence (Q8K424 whole entry G573C) above, with C573G, N643A counted along it
T2 sequence (Q8K424 whole entry L655A): as the sequence (Q8K424 whole entry G573C) above, with C573G, L655A counted along it

For `CCCCOc1ccc(C(=O)CCN2CCCCC2)cc1` [dyclonine], which “reduction of spontaneous activities” value (TRPV3 (G573C); 10 μM dyclonine, –60 mV, leak subtracted with 20 μM RR) is on record?
The value was 71% ± 2%.

And the “300 μM 2-APB-evoked responses, of control level” value (TRPV3 (G573C); presence of dyclonine)?
Its value is 11% ± 1%.

What about the IC50 (TRPV3 L655A) of the same compound?
The IC50 was 287 ± 10.4 µM.

And the IC50 (TRPV3 N643A)?
The IC50 was 37.7 ± 5.1 µM.

And the IC50 (TRPV3 L642A)?
Its IC50 is 0.25 ± 0.02 µM.
